{"source": "patent US10041937B2", "about": "“Macrophage identification agent, and identification method, sorting method, evaluation method, screening method and kit using the macrophage identifier agent” (CANON KABUSHIKI KAISHA, priority 2013, dated 2018)", "key": {"[1]": {"tested_on": "M1 macrophages and M2 macrophages differentiated from mouse bone marrow cells", "assay": "Subtype identification by staining and flow cytometry of M1 and M2 macrophages differentiated from mouse bone marrow cells", "assay_type": "cell-based, Balb/c mouse", "in_short": "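Balb/c mouse bone marrow cells were differentiated to macrophages with 50 ng/mL M-CSF over two 3–4-day periods, then polarized for 3 days to M1 (interferon-γ plus polyliposaccharide) or M2 (IL-4). Live cells (aqua dye-negative) were analysed by flow cytometry; resolution R = |FM1−FM2|/(WM1+WM2) from histogram peak positions and widths indexed subtype discrimination.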"}, "[2]": {"tested_on": "mixture of the M1 macrophages and the M2 macrophages", "assay": "Sorting of subtypes from a mixture of M1 and M2 macrophages with an FACS apparatus", "assay_type": "cell-based, mouse", "conditions": "compound 1 μM"}, "[3]": {"tested_on": "M1 macrophages and M2 macrophages differentiated from THP-1 cells", "assay": "Identification of macrophage subtypes differentiated from human cell line THP-1", "assay_type": "cell-based", "experimental": "The fluorescent signals derived from the compounds (3), (4), (6), (7), (9), (11) to (13), (15), (17), (19) to (26), (28), (30) to (33), (35), (36), (38), (42) to (45), (48) to (62), (65), (67), (74) to (76), (82), (83) and (85) and the comparative compounds (1) and (2) were measured in channels suitable to the respective compounds. Histograms were prepared by plotting fluorescence intensities obtained in the respective channels on the abscissa and plotting the numbers of cells at each fluorescence intensity on the ordinate. A difference between a fluorescence intensity (FM1) at a peak top of the histogram of the M1 macrophage and a fluorescence intensity (FM2) at a peak top of the histogram of the M2 macrophage is divided by a sum of a peak width (WM1) of the histogram of the M1 macrophage and a peak width (WM2) of the histogram of the M2 macrophage, so as to obtain a resolution R, which was used as an index of the identification ability for a subtype (see the following expression (1)). Resolution R=|FM1−FM2|/(WM1+WM2) Expression (1)\nBased on the thus obtained values of the resolution R, the identification abilities for the subtypes of the compounds (3), (4), (6), (7), (9), (11) to (13), (15), (17), (19) to (26), (28), (30) to (33), (35), (36), (38), (42) to (45), (48) to (62), (65), (67), (74) to (76), (82), (83) and (85) and the comparative compounds (1) and (2) were evaluated as any of A to C according to the following criteria, and if the resolution R was 0.15 or more, the compound was determined to be good in the subtype identification.\nThe subtypes were identified by using the compound (1) in the same manner as in Example 1 except that the macrophage subtypes differentiated from the mouse bone marrow cells were changed to macrophage subtypes differentiated from a cell line established from human acute monocytic leukemia.\nThe culture of subtypes was performed with reference to NPL 10. Specifically, THP-1 cells purchased from JCRB Cell Bank of National Institute of Biomedical Innovation, that is, a cell line established from human acute monocytic leukemia, were subcultured several times, and the resultant cells were dispersed to a concentration of 5.0×10^5/mL in an RPMI1640 containing 10% FBS and 1% P/S, and 5.0×10^6 cells were seeded in a 100 mm dish. The monocytes were differentiated into macrophages by incubating the resultant in the presence of 5% CO2 at 37° C. for 2 days with 500 ng of PMA added thereto. After exchanging the medium, by adding 200 ng of interferon-γ and 1 μg of polyliposaccharide (both manufactured by Pepro Tech) to the medium, the cells were differentiated to the subtype M1. Besides, by adding 200 ng of IL-4 and IL-13, the cells were differentiated to the subtype M2. After incubation performed in the presence of 5% CO2 at 37° C. for 24 hours, the resultant was rinsed with PBS, and PBS containing 0.25% trypsin and 1 mM EDTA (ethylenediaminetetraacetic acid) was used for collecting, from the dish, the macrophages having been differentiated to the subtypes M1 and M2.\nSpecifically, fluorescent signals derived from the compounds (1) (3) (4) (12) and (15) were measured by using the channels which are appropriate for each of the compounds and the identification abilities for the subtypes of the compounds were evaluated based on the values of the resolution R."}, "[4]": {"conditions": "fluorescence intensity at peak top of histogram, compound 1 μM, 37° C., 30 minutes"}}}
{"compound": "CCOC(=O)CCN1C(=O)/C(=C\\c2ccc3c(c2)C2CCCC2N3CC)SC1=S", "note": "(stereo not drawn) [compound (1)]", "values": [{"measurement": "Resolution ratio R", "setting": "[1]; R=|FM1−FM2|/(WM1+WM2), compound 1 μM", "result": 1.150}, {"measurement": "Peak position of M1 macrophage", "setting": "[1]; [4]", "result": 85.8}, {"measurement": "Peak position of M2 macrophage", "setting": "[1]; [4]", "result": 12.4}, {"measurement": "Evaluation of macrophage subtype identification", "setting": "[1]; rated from resolution R", "result": "A (The compound is very good in the subtype identification (namely, the resolution R is 0.5 or more))"}, {"measurement": "subtype more strongly stained", "setting": "[1]; two compounds used in combination, each 1 μM", "result": "the M1 macrophages are more strongly stained than the M2 macrophages"}, {"measurement": "sorting of identified M1 and M2 macrophages", "setting": "[2]; FACS apparatus", "result": "could be each sorted with an FACS apparatus"}, {"measurement": "subtype more strongly stained", "setting": "[2]; mixed M1 and M2 macrophages", "result": "stain the M1 macrophages more strongly than the M2 macrophages"}, {"measurement": "Resolution ratio R", "setting": "[3]; M1 vs M2 macrophages differentiated from THP-1 cells, channel listed per compound (Table 6)", "result": 0.409}, {"measurement": "Evaluation of macrophage subtype identification", "setting": "[3]; M1 vs M2 macrophages differentiated from THP-1 cells, class based on resolution R (Table 6)", "result": "B (the compound is good in the subtype identification (namely, the resolution R is 0.15 or more and less than 0.5))"}, {"measurement": "Peak position of M1 macrophage", "setting": "[3]; THP-1-derived M1 macrophages, fluorescence intensity peak by flow cytometry in the channel listed per compound (Table 6)", "result": 58.1}, {"measurement": "Peak position of M2 macrophage", "setting": "[3]; THP-1-derived M2 macrophages, fluorescence intensity peak by flow cytometry in the channel listed per compound (Table 6)", "result": 33.4}, {"measurement": "Selectivity", "setting": "[3]; subtype strongly stained, THP-1-derived macrophages (Table 6)", "result": "M1"}]}
